The values that follow come from article PMC9221546, “New Phenylglycinamide Derivatives with Hybrid Structure as Candidates for New Broad-Spectrum Anticonvulsants” (Cells, 2022).

The subject of data set [1] is GABA transporter. Nature of the data set: GABA transporter binding (antagonist radioligand). As to conditions: 100 µM; rat cerebral cortex. Here is the method: (§1) Binding/functional studies were carried out commercially in Eurofins Laboratories (Poitiers, France) and Eurofins Panlabs Discovery Services Taiwan, Ltd. (New Taipei City, Taiwan) using testing procedures that were reported previously (for details see Table S2).
(§2) Table S2. Radioligand binding and functional assays. […]
GABA transporter (antagonist radioligand) […]
(§3) TRPV1 (VR1) (h) (antagonist effect) […]
(§4) Assays were performed commercially in Eurofins Laboratories (Poitiers, France) or Eurofins Panlabs Discovery
(§5) Services Taiwan, Ltd. (New Taipei City, Taiwan). […]

The subject of data set [2] is GABAA ion channel. Kind of data set: GABAA ion channel [3H]GABA binding (agonist radioligand). The note with it: 100 µM; rat cerebral cortex. Here is the method:
as §1, §2
GABAA ion channel [3H]GABA (agonist radioligand) […]
as §3, §4, §5

A short description of data set [3]: Neurotoxicity, SH-SY5Y viability (MTS). The class given is cell-based. As to conditions: human, SH-SY5Y neuroblastoma cells, 10 and 50 µM, read-out: SH-SY5Y cell viability, % of the control. Here is the method: Moreover, the dose-dependent increase in the cells viability was found during the repeated experiment in lower concentrations (Figure 8B). […] Thus, the observed influence of this chemical group for neuronal cells is worth further detailed exploration.
Figure 8 The effect of 53 and the cytostatic drug doxorubicin (DX) on neuroblastoma SH-SY5Y cell line viability after 72 h of incubation at 37 °C, 5% CO2 in the concentration range 1–100 µM (A) and 0.001–1 µM (B). The data were analyzed with one-way ANOVA, followed by Bonferroni’s Comparison Test (Graph Pad Prism 8.0.1 software, San Diego, CA, USA)): *** p < 0.001, **** p < 0.0001 vs. negative control (DMSO 1% in growth media).

Data set [4] deals with T1, hERG (Homo sapiens, UniProt Q12809).
T1 construct: Eurofins
Kind of data set: Potassium channel (hERG) binding. As to conditions: human recombinant HEK-293 cells expressing hERG, human recombinant HEK-293 cell, read-out: % Inhibition of Control Specific Binding, hERG. How it is done: as §1, §2
Potassium channel (hERG)
as §3, §4, §5
(hERG is a cardiac potassium channel; its block is linked to QT prolongation.)

Data set [5] concerns fast voltage-gated sodium channels in rat prefrontal cortex pyramidal neurons. Kind of data set: Patch-clamp of fast sodium currents. Format: cell-based. The note with it: control = 1.0, n = 7. Here is the method: The methodology of slice preparation, slice preincubation, and patch-clamp technique was the same as in our previous studies. Compound 53 was tested at a concentration of 10 µM.
Thus, we determined the influence of 53 on fast voltage-gated sodium channels in rat prefrontal cortex pyramidal neurons (at a concentration of 10 μM) using the patch-clamp technique. Maximal currents were evoked by rectangular voltage steps to 0 mV. […] The effect was not strong, but statistically significant (1.0 in the control and 0.83 ± 0.03 after the application of 53, p < 0.01). It was possible to obtain partial wash-out (0.86 ± 0.03 and the current were normalized to the control level, n = 7, Figure 5).
Figure 5 (A) The influence of compound 53 on sodium current is shown on an example neuron. The current was evoked once every ten seconds by a rectangular voltage-step. […] (B) Example of the sodium current recordings in the control (black trace), after the application of the tested compound (blue trace), and after wash-out (red trace). (C) The averaged normalized maximal current amplitudes in the control, in the presence of 53, and after wash-out. The data were analyzed with a nonparametric repeated measures ANOVA followed by Dunn’s post hoc test. * p < 0.01 (n = 7).
In general terms: In patch-clamp work, channel activity is measured electrically.

Data set [6] concerns NMDA receptor. Nature of the data set: NMDA binding (antagonist radioligand). As to conditions: 100 µM; rat cerebral cortex. How it is done: as §1, §2
NMDA (antagonist radioligand) […]
as §3, §4, §5

Data set [7] in a line: PAMPA permeability (Pre-coated PAMPA Plate System Gentest). The note with it: read-out: Pe (permeability coefficient) ± SD. Format: in vitro ADME. In general terms: In PAMPA a lipid-coated filter parts donor from acceptor wells.
From the text: Caffeine (CFN) and norfloxacin (NFX) were used as the high- and low-permeable references, respectively.
The test system of data set [8] is mice. Nature of the data set: Capsaicin-induced hypothermia model / core body temperature. Format: in vivo. As to conditions: i.p. 15 min before capsaicin 5 mg/kg; compound 60 50 mg/kg, BCTC 20 mg/kg. How it is done:
Capsaicin was dissolved in 1% DMSO and administered at a dose of 5 mg/kg at a time point 0 min. Compound 60 and BCTC (positive control) were suspended in 1% Tween 80 and administered 15 min before capsaicin (at time point -15 min). All compounds were injected i.p. at a constant volume of 10 mL/kg. Control animals received the respective vehicles (1% DMSO or 1% Tween 80). Changes in the rectal temperature were measured using an electronic thermometer (ThermoWorks, Alpine, UT, USA) by inserting the rectal probe to a depth of ~2 cm into the rectum of the mouse. The measurements were taken at −15, 0, 15, 30, 60, 90, 120, and 180 min. The differences in the rectal temperature from baseline (time -15 min for groups receiving compound 60 and BCTC in combination with vehicle or time 0 min for groups receiving vehicle and capsaicin or compound 60 and BCTC in combination with capsaicin) to the respective time point ΔT (°C) were then calculated and analyzed. The results are shown in Figure 4 (see Section 3 Results and Discussion).
Figure 4 Effects of compound 60 and BCTC alone (A) or in combination with capsaicin (B) on the core body temperature in mice. Capsaicin (CPS) was injected at 0 min, as indicated by the arrow. Compound 60 or BCTC were administered 15 min prior to CPS injection. The temperature was measured at −15, 0, 15, 30, 60, 90, 120, and 180 min. Since body temperature returned to control values 60 min after CPS injection, subsequent measurements are not shown. Control animals received vehicles (1% DMSO or 1% Tween 80). All the compounds were administered i.p. Each experimental group consisted of seven to eight animals. The data are presented as the mean differences (ΔT) in rectal temperature from baseline (time −15 for A and time 0 for B) to the respective time point. The data were analyzed with one-way ANOVA followed by Tukey’s post hoc test. ** p < 0.01, *** p < 0.001, **** p < 0.0001 vs. the control group; ^#### p < 0.0001 vs. the CPS-treated group.

Structures are written as SMILES.

T1 sequence (Q12809 whole entry): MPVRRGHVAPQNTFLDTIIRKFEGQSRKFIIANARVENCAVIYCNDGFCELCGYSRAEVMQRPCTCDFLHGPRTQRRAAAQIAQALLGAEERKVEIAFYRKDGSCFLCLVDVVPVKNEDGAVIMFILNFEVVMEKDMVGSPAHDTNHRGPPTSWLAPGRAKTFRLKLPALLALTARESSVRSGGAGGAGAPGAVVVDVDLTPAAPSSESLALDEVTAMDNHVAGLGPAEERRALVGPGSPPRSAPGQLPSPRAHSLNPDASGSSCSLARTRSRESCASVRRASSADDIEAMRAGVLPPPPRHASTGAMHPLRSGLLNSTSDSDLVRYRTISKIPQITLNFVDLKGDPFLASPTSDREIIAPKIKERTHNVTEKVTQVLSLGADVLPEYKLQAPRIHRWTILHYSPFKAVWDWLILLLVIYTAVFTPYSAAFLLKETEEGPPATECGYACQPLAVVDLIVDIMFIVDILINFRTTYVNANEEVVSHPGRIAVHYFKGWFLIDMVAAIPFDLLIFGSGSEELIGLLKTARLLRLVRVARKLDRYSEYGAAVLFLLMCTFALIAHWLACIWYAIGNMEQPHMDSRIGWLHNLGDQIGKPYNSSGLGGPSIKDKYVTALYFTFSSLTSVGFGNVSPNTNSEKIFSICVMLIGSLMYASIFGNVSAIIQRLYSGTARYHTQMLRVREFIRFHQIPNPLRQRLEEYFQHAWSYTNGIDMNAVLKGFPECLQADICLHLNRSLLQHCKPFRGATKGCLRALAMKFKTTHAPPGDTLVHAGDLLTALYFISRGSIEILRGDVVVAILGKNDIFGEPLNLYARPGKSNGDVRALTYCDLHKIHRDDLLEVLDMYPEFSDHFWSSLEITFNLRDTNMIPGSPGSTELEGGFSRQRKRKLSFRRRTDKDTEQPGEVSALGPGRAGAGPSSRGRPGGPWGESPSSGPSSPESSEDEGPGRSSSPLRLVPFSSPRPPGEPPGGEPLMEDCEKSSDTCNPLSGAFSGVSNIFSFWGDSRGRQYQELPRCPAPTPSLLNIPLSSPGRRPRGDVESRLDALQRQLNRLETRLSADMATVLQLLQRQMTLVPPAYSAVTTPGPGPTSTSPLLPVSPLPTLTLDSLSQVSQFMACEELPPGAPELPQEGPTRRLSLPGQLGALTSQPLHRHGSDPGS

One may read the viability as a read-out of living cells in per cent, often relative to untreated cells. As a reminder, the inhibition is the share of the control response that was lost under treatment. For orientation: melting point means the temperature of the solid-liquid transition. In turn, `CC(=O)NC(C(=O)N1CCN(c2cccc(C(F)(F)F)c2)CC1)c1ccccc1` (stereo not shown) [Compound 53, N-(2-oxo-1-phenyl-2-(4-(3-(trifluoromethyl)phenyl)piperazin-1-yl)ethyl)acetamide] gave a melting point of 131.8 to 132.5 °C. Moreover, the “% Inhibition of Control Specific Binding, GABA transporter” value in data set [1] is on record as 2.8 (100) %. Also, in data set [2], the “% Inhibition of Control Specific Binding, GABAA ion channel” value is −1.1 (100) %. Moreover, the viability at 72 h in data set [3] was at most 140%. Moreover, the inhibition at 100 µM in data set [4] came out at 24%. For the same compound, in [5] (10 μM), the “normalized maximal amplitude of sodium current after application” value stood at 0.83 ± 0.03. The “normalized maximal amplitude of sodium current after wash-out” value in data set [5] (after 10 μM) amounted to 0.86 ± 0.03. Also, the “% Inhibition of Control Specific Binding, NMDA” value in data set [6] is 9.0 (100) %.

In the case of `CC(=O)NC(C(=O)N1CCN(c2cccc(OC(F)(F)F)c2)CC1)c1ccccc1` (stereo not shown) [Compound 60, N-(2-oxo-1-phenyl-2-(4-(3-(trifluoromethoxy)phenyl)piperazin-1-yl)ethyl)acetamide], the Papp in data set [7] was 9.15 ± 0.78 ×10⁻⁶ cm/s. Further, in data set [8], the “effect on capsaicin-induced hypothermia (co-administration)” value is given as “did not affect the capsaicin-induced hypothermia”.
